Measured values reported in paper PMC12892976, “Alkylation-based optimization of antifungal FPPS inhibitors yields a potent, broad-spectrum lipophilic zoledronate derivative” (mBio, 2025).

How the values were obtained:
Candida albicans [1] = assay: checkerboard drug interaction (FICI, MICc); format: cell-based;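 note: antifungal plus FPPS inhibitor combinations on Candida albicans tested by a simplified diagonal checkerboard screen, with FICI calculated under the Loewe additivity model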
Procedure: (§1) Drug interactions between antifungals and FPPS inhibitors were investigated using a simplified checkerboard diagonal screening method ([45]). […] FICIs were determined according to the Loewe additivity model ([17]).

Aspergillus flavus [2] = assay: checkerboard drug interaction (FICI, MICc); format: cell-based; set-up: INH MICc (KET:INH) / INH MICc (FLC:INH): unit not given beside the values;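 note: simplified diagonal checkerboard screen pairing azole antifungals with FPPS inhibitors, FICI calculated under the Loewe additivity model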
Trichophyton rubrum = assay: checkerboard drug interaction (FICI, MICc); format: cell-based;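 note: simplified diagonal checkerboard screen pairing azole antifungals with FPPS inhibitors, FICI calculated under the Loewe additivity model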
Procedure: as §1

Aspergillus udagawae = assay: MIC broth microdilution (CLSI); format: cell-based; settings: Aspergillus udagawae 8G81
Procedure: (§2) Antifungal susceptibility was determined by broth microdilution according to the CLSI guidelines described in M27-Ed4 ([16]).

Cryptococcus neoformans = assay: MIC/MFC broth microdilution (CLSI);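 note: susceptibility testing followed the CLSI M27-Ed4 broth microdilution document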
Procedure: (§3) Antifungal susceptibility was determined by broth microdilution according to the CLSI guidelines described in M27-Ed4 ([16]). […] MFC was determined by back-plating drug-treated cultures from MIC broths onto SDA plates. The MFC was defined as the lowest concentration from which no colonies could be cultured.

Candida albicans [3] = assay: MIC/MFC broth microdilution (CLSI); format: cell-based; settings: Candida albicans SC5314
Procedure: as §3

Aspergillus fumigatus [4] = assay: MIC/MFC broth microdilution (CLSI); settings: ATCC204305
Procedure: as §3

eight fungal species = assay: checkerboard interaction with azoles, summary across the eight species; format: cell-based
Text: Synergy between lipophilic FPPS inhibitors and azole antifungals was investigated by determining the fractional inhibitory concentration index (FICI) (Fig. 2; Table S1 Fig. S1) ([17]). […]. Derivatives PLA9 and 11, and PDA9, 11, and 12 antagonized azoles in C. albicans, C. neoformans, and C. deuterogattii, yet were largely synergistic in C. glabrata and S. cerevisiae. […].

Aspergillus fumigatus [5] = assay: checkerboard drug interaction (FICI, MICc); format: cell-based;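 note: simplified diagonal checkerboard screen pairing antifungals with FPPS inhibitors against Aspergillus fumigatus, with FICI calculated under the Loewe additivity model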
Procedure: as §1

Lomentospora prolificans = assay: MIC broth microdilution (CLSI); format: cell-based; settings: Lomentospora prolificans 80-16-101-2445
Procedure: as §2

[6] = test system: Cryptococcus deuterogattii; assay: MIC/MFC broth microdilution (CLSI);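 note: broth microdilution per CLSI M27-Ed4. MFC is the lowest concentration yielding no colonies when MIC broths are subcultured onto SDA plates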
Procedure: as §3

Candida glabrata = assay: MIC/MFC broth microdilution (CLSI);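 note: broth microdilution following CLSI M27-Ed4, MFC taken as the lowest drug level yielding no growth once MIC wells were subcultured on SDA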
Procedure: as §3

Aspergillus flavus [7] = assay: MIC/MFC broth microdilution (CLSI); settings: ATCC204304
Procedure: as §3

CCCCCCCCCCn1cc[n+](CC(O)(P(=O)(O)O)P(=O)(O)O)c1 [10-ZOL, Decyl-zoledronate]
bisphosphonate MICc (Candida albicans [1]; with ITR): 0.25
bisphosphonate MICc (Candida albicans [1]; with KET): 0.125
bisphosphonate MICc (Candida albicans [1]; with VOR): 0.25
INH MICc (FLC:INH) (Aspergillus flavus [2]; A. flavus, MIC of the inhibitor in combination with fluconazole): 0.063
INH MICc (ITR:INH) (Aspergillus flavus [2]; A. flavus, MIC of the inhibitor in combination with itraconazole): 0.125
INH MICc (KET:INH) (Aspergillus flavus [2]; A. flavus, MIC of the inhibitor in combination with ketoconazole): 0.125
FICI (Aspergillus flavus [2]; AMB:10-ZOL): 2
FICI (Aspergillus flavus [2]; FLC:10-ZOL): 0.53
FICI (Aspergillus flavus [2]; VOR:10-ZOL): 0.37
bisphosphonate MICc (Aspergillus flavus [2]; with 5FC): 1
bisphosphonate MICc (Aspergillus flavus [2]; with AMB): 2
bisphosphonate MICc (Aspergillus flavus [2]; with CAS): 2
bisphosphonate MICc (Aspergillus flavus [2]; with FLC): 0.063
FICI (Aspergillus flavus [2]; with FLC, Aspergillus flavus): 0.53
bisphosphonate MICc (Aspergillus flavus [2]; with ITR): 0.125
bisphosphonate MICc (Aspergillus flavus [2]; with KET): 0.125
bisphosphonate MICc (Aspergillus flavus [2]; with VOR): 0.5
FICI (Trichophyton rubrum; KET:10-ZOL): 0.5
INH MICc (FLC:INH) (Trichophyton rubrum; T. rubrum, MIC of the inhibitor in combination with fluconazole): 0.5
INH MICc (ITR:INH) (Trichophyton rubrum; T. rubrum, MIC of the inhibitor in combination with itraconazole): 0.5
INH MICc (KET:INH) (Trichophyton rubrum; T. rubrum, MIC of the inhibitor in combination with ketoconazole): 0.5
FICI (Trichophyton rubrum; VOR:10-ZOL): 0.5
bisphosphonate MICc (Trichophyton rubrum; with 5FC): 1
bisphosphonate MICc (Trichophyton rubrum; with AMB): 0.25
bisphosphonate MICc (Trichophyton rubrum; with CAS): 0.5
bisphosphonate MICc (Trichophyton rubrum; with FLC): 0.5
bisphosphonate MICc (Trichophyton rubrum; with ITR): 0.5
bisphosphonate MICc (Trichophyton rubrum; with KET): 0.5
bisphosphonate MICc (Trichophyton rubrum; with VOR): 0.5
MIC / MEC (Aspergillus udagawae): 1 µg/mL
MFC (Cryptococcus neoformans; Cryptococcus neoformans): 2 µg/mL
MIC (Cryptococcus neoformans; Cryptococcus neoformans): 1 µg/mL
MIC / MEC (Cryptococcus neoformans; Cryptococcus neoformans H99): 0.5 µg/mL
MFC (Candida albicans [3]): 16 µg/mL
MIC (Candida albicans [3]): 4 µg/mL
MIC / MEC (Candida albicans [3]): 4 µg/mL
MFC (Aspergillus fumigatus [4]): 2 µg/mL
MIC (Aspergillus fumigatus [4]): 1 µg/mL
MIC / MEC (Aspergillus fumigatus [4]): 1 µg/mL
effect on azole MIC in combination (eight fungal species; across all species tested): consistently reduced the MIC of the azole
antagonism with azole drugs (eight fungal species; any of the azole drugs in any species tested): no antagonism
GM fungal MICc (eight fungal species; geometric mean MIC in combination with azoles): 0.1
FICI (Aspergillus fumigatus [5]; 5FC:10-ZOL): 3
FLC MICc (Aspergillus fumigatus [5]; A. fumigatus, FLC:INH combination, MIC of FLC in combination with the inhibitor): 8
INH MICc (Aspergillus fumigatus [5]; A. fumigatus, FLC:INH combination, MIC of the inhibitor in combination with FLC): 0.5
ITR MICc (Aspergillus fumigatus [5]; A. fumigatus, ITR:INH combination, MIC of ITR in combination with the inhibitor): 0.063
INH MICc (Aspergillus fumigatus [5]; A. fumigatus, ITR:INH combination, MIC of the inhibitor in combination with ITR): 0.063
KET MICc (Aspergillus fumigatus [5]; A. fumigatus, KET:INH combination, MIC of KET in combination with the inhibitor): 0.25
INH MICc (Aspergillus fumigatus [5]; A. fumigatus, KET:INH combination, MIC of the inhibitor in combination with KET): 0.25
FICI (Aspergillus fumigatus [5]; CAS:10-ZOL): 1.5
bisphosphonate MICc (Aspergillus fumigatus [5]; with 5FC): 1
bisphosphonate MICc (Aspergillus fumigatus [5]; with AMB): 0.25
bisphosphonate MICc (Aspergillus fumigatus [5]; with CAS): 1
bisphosphonate MICc (Aspergillus fumigatus [5]; with FLC): 0.5
bisphosphonate MICc (Aspergillus fumigatus [5]; with ITR): 0.063
bisphosphonate MICc (Aspergillus fumigatus [5]; with KET): 0.25
bisphosphonate MICc (Aspergillus fumigatus [5]; with VOR): 0.25
MIC / MEC (Lomentospora prolificans): 2 µg/mL
MFC ([6]; Cryptococcus deuterogattii): 2 µg/mL
MIC ([6]; Cryptococcus deuterogattii): 1 µg/mL
MIC / MEC ([6]; Cryptococcus deuterogattii R265): 1 µg/mL
MIC / MEC (Candida glabrata; Candida glabrata CBS138 (ATCC 2001)): 0.5 µg/mL
MFC (Candida glabrata; Nakaseomyces glabratus, CBS138): 1 µg/mL
MIC (Candida glabrata; Nakaseomyces glabratus, CBS138): 0.5 µg/mL
MFC (Aspergillus flavus [7]): 4 µg/mL
MIC (Aspergillus flavus [7]): 2 µg/mL
MIC / MEC (Aspergillus flavus [7]): 2 µg/mL
